Laboratory results: PMC9049325 (ChemMedChem, 2020)
pIC50: −log10 of the molar value. Like-named read-outs stand apart in the source and are kept apart here.

Columns and labels:
[1] = test system: CB-R-HCT116 cells (p97 D649A/T688A); assay: Cell proliferation, CB-5083 resistant HCT116 versus parental HCT116; assay type: cell-based; settings: for sensitivity of CB-R-HCT116 compared with parental HCT116: cell proliferation
HCT116 cells = settings: HCT116, 2.5 μM, 6 hours
CB-R-HCT116 cells = assay: Western blot of UPR / p97 inhibition biomarkers, CB-R-HCT116; assay type: cell-based; settings: CB-R-HCT116, 10 μM, 6 hours
seven cancer lines = assay: Cancer cell proliferation assay; assay type: cell-based; settings: for pIC50: read-out: IC50 for inhibition of proliferation
[2] = molecular target: p97 D649A/T688A double mutant; assay: p97 ATPase activity assay, D649A/T688A double mutant; assay type: biochemical; settings: protein concentration and reaction time each increased 4-fold
[3] = test system: CB-5083 resistant p97 mutants; assay: p97 ATPase activity assay, panel of CB-5083 resistant mutants; assay type: biochemical; settings: among CB-5083 resistant mutants
p97 ATPase = p97 ATPase (Homo sapiens, UniProt P55072); assay: Steady-state kinetic analysis of p97 ATPase inhibition; assay type: biochemical; settings: ten ATP concentrations, 2 or 3 inhibitor concentrations
Chain of p97 ATPase (P55072 whole entry): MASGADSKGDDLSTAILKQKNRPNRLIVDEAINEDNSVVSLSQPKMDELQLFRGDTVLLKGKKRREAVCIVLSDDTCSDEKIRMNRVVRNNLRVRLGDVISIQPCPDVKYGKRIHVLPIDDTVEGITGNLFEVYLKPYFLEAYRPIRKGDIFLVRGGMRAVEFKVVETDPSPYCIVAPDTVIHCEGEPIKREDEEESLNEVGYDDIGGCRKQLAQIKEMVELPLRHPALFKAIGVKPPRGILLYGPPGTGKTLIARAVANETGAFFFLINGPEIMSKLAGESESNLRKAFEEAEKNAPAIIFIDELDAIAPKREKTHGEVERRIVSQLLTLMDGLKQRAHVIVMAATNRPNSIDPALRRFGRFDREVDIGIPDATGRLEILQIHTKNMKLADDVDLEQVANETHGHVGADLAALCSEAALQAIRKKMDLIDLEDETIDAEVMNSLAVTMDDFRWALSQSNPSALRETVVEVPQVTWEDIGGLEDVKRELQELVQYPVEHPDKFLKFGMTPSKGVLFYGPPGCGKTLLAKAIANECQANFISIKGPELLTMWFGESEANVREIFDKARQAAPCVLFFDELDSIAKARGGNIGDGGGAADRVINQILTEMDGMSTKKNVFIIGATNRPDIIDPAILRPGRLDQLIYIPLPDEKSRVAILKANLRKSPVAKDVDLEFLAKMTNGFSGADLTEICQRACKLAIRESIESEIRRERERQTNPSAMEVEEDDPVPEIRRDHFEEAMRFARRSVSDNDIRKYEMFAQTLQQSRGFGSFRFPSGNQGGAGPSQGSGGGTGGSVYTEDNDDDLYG

A549 cells [4] = assay: Intracellular compound concentration determination
WT p97 [5] = molecular target: T1, WT p97 (Homo sapiens, UniProt P55072); assay: p97 ATPase activity assay, WT; assay type: biochemical
T1 sequence (P55072 whole entry): as above

A549 cells [6] = test system: A549 cells
p97 T688A mutant = p97 T688A mutant (Homo sapiens, UniProt P55072, T688A); assay: p97 ATPase activity assay, T688A mutant; assay type: biochemical
Chain of p97 T688A mutant (P55072 whole entry T688A): as the sequence (P55072 whole entry) above, with T688A counted along it

WT p97 [7] = molecular target: T1, WT p97; assay: Thermal shift assay; assay type: binding; settings: TSA, WT compared with N660K and T688A

For Cc1cc2c(C(N)=O)cccc2n1-c1nc2c(c(NCc3ccccc3)n1)COCC2 [CB-5083], the inhibition of proliferation ([1]; CB-R-HCT116, 10.5 μM) was “only slightly inhibited”, the “sensitivity of CB-R-HCT116 compared with parental HCT116” value [1] was “unaffected” and the “changes in biomarkers (K48 ubiquitination, ATF4, CHOP, p62)” value (HCT116 cells) was “accumulation of K48 ubiquitination, ATF4 and CHOP”. For the same molecule, the “changes in biomarkers (K48 ubiquitination, ATF4, CHOP, p62)” value (CB-R-HCT116 cells) was “no effects on these biomarkers”, the pIC50 (seven cancer lines) was 5.40 to 6.30 and the “IC50 increase toward D649A/T688A vs WT p97” value [2] was “about 400 fold”. The “mutants most resistant to inhibition” value [3] was “N660K and T688A are the most resistant”.
With COc1cccc2c(NCc3ccccc3)nc(-n3c(N)nc4ccccc43)nc12 [ML240] the “mutants most resistant to inhibition” value [3] was “N660K and T688A are the most resistant”.
With c1ccc(CNc2nc(N3CCOc4ccccc43)nc3c2CCCC3)cc1 [ML241] the “mutants most resistant to inhibition” value [3] was “N660K and T688A are the most resistant”.
For Cc1cc(OCc2nnc(SC3CCCC3)n2-c2cccnc2)ccc1-c1ccc(S(C)(=O)=O)cc1 [NMS-873], the “sensitivity of CB-R-HCT116 compared with parental HCT116” value [1] was “slightly more sensitive”, the mechanism of inhibition (p97 ATPase) was “noncompetitive inhibitor” and the intracellular concentration reached (A549 cells [4]) was “millimolar”. The pIC50 (seven cancer lines) was 5.40 to 6.30.
CC(C)N1CCN(CCNC2CCN(c3cccc(-c4cc5cc(F)ccc5[nH]4)c3)CC2)CC1 [UPCDC-30245] was tested, and the “sensitivity of CB-R-HCT116 compared with parental HCT116” value [1] was “similarly sensitive”, the “fold less potent than NMS-873 in the ATPase activity assay” value (WT p97 [5]; WT p97) was 12 fold and the pIC50 (WT p97 [5]; read-out: IC50 toward WT p97 ATPase activity, biochemical assay) was 6.52. The mechanism of inhibition (p97 ATPase) was “noncompetitive inhibition”, the “intracellular concentration relative to NMS-873” value (A549 cells [4]; 5 μM) was 12 fold and the “potency at inhibiting cell proliferation compared with NMS-873” value (seven cancer lines; HT29 cells) was “more potent”. The intracellular concentration reached (A549 cells [6]) was “millimolar”, the “time to steady-state intracellular concentration” value (A549 cells [6]) was 3 h and the “fold resistance of T688A (IC50 increase vs WT)” value (p97 T688A mutant) was 3 fold. For the same molecule, the “IC50 increase toward D649A/T688A vs WT p97” value [2] was 2 fold and the “effect on Tm of WT, N660K and T688A p97” value (WT p97 [7]) was “did not stabilize WT or either mutant p97 protein”.
